# Source: patent US6780876B2, “Composition for keeping away vermin” (Novartis Animal Health US, Inc., priority 1998, dated 2004)
# Tests used:
# [1] = system: Rhipicephalus Sanguineus (nymphs); test: Arena test in vitro against Rhipicephalus sanguineus (nymphs); type: in vivo; details: even up to a dilution of 10 μg/cm^2
# Description: (§1) This method is carried out in titre plates having 6 wells with a cross-section of 5 cm each, using a computer-supported video system. Each well of the titre plate is lined with a circular filter paper or another suitable carrier material. The substance of formula I to be tested is dissolved in methanol, acetonitrile or another suitable solvent, with ultrasound treatment and heating being employed for poorly-soluble substances. In an amount of 1 to 100 μg/cm^2, the dissolved test substance is placed in the centre of the filter paper on a quadrant or circular area of ca. 2.4 cm^2 radius. 4 of the 6 wells are filled with different test substances or with the same test substance in different dilutions (e.g. 1, 3.2, 5, 10 and 20 μg/cm^2). The 5th well is treated with DEET (N,N-diethyl-m-toluamide) as standard substance. The 6th well is filled with the pure solvent and serves as a control. 60 to 100 larvae or 25 to 50 nymphs or 10 to 25 adults of the parasite to be tested, e.g. ticks, are added to each filter paper, and the system is covered with a pane of glass and positioned under a video camera. At intervals of 5 seconds, the video camera takes individual pictures of all 6 wells. […] 6 or with the standard in the 5th well. […] In this way, neutral and deterring substances are determined. At the same time, the duration of activity of the test substance is determined and compared with that of the standard. By plotting all the images for each individual well over one another, different areas of density are obtained. This represents the frequency at which the parasites visit certain places. This frequency is evaluated statistically and thus quantitatively by the Willcoxon method in a comparison with the control and with the standard.
# Arena Test in vitro Against Rhipicephalus Sanguineus (nymphs)
# A test is carried out analogously to example B using ca. 40 to 50 nymphs.
# [2] = system: Amblyomma Hebraeum or Variegatum (nymphs); test: Arena test in vitro against Amblyomma hebraeum or variegatum (nymphs); type: in vivo; details: even up to a dilution of 3.2 μg/cm^2
# Description: (§2) This method is carried out in titre plates having 6 wells with a cross-section of 5 cm each, using a computer-supported video system. Each well of the titre plate is lined with a circular filter paper or another suitable carrier material. The substance of formula I to be tested is dissolved in methanol, acetonitrile or another suitable solvent, with ultrasound treatment and heating being employed for poorly-soluble substances. In an amount of 1 to 100 μg/cm^2, the dissolved test substance is placed in the centre of the filter paper on a quadrant or circular area of ca. 2.4 cm^2 radius. 4 of the 6 wells are filled with different test substances or with the same test substance in different dilutions (e.g. 1, 3.2, 5, 10 and 20 μg/cm^2). The 5th well is treated with DEET (N,N-diethyl-m-toluamide) as standard substance. The 6th well is filled with the pure solvent and serves as a control. 60 to 100 larvae or 25 to 50 nymphs or 10 to 25 adults of the parasite to be tested, e.g. ticks, are added to each filter paper, and the system is covered with a pane of glass and positioned under a video camera. At intervals of 5 seconds, the video camera takes individual pictures of all 6 wells. For a qualitative evaluation, these images are observed in a time-lapse as a continuous film, optically following the movements of the parasites on the filter paper and comparing them with the movements in the control well no. 6 or with the standard in the 5th well. A qualitative observation is thus made as to whether the test parasites move evenly over the whole surface of the filter paper and ignore the test substance, or whether and over what period they avoid the treated zone, and what influence the dilution of the test substance has on the behaviour of the test parasites. In this way, neutral and deterring substances are determined. At the same time, the duration of activity of the test substance is determined and compared with that of the standard. By plotting all the images for each individual well over one another, different areas of density are obtained. This represents the frequency at which the parasites visit certain places. This frequency is evaluated statistically and thus quantitatively by the Willcoxon method in a comparison with the control and with the standard. Compounds of Table 1, for example nos.
# Arena Test in vitro Against Amblyomma Hebraeum or Variegatum (nymphs)
# The test is carried out as described above, with ca. 25 to 50 nymphs being added per well. 10 mg of dissolved test substance is applied to an area of 2.4 cm^2 radius. […] 1.26 to 1.36, 1.40, 1.45, 1.47, 1.95, 1.96, 1.97, 1.137, and 1.139, even up to a dilution of 3.2 μg/cm^2.
# [3] = system: ticks; test: Arena test method for testing vermin-deterring substances; type: in vivo; details: 1 to 100 μg/cm^2 on filter paper; video evaluation against solvent control and DEET standard
# Description: Arena Test Method for Testing Vermin-deterring Substances
# as §2
# [4] = system: Boophilus Microplus Biarra (larvae); test: Arena test in vitro against Boophilus microplus Biarra (larvae); type: in vivo; details: even up to a dilution of 10 μg/cm^2
# Description: as §1
# Arena Test in vitro Against Boophilus Microplus Biarra (larvae)
# The test is carried out as described above, with ca. 60 to 100 larvae being added per well. 10 mg of dissolved test substance is applied to an area of 2.4 cm^2 radius.
# [5] = system: certain plant damaging insects; details: cited from earlier work
Structure (SMILES),long-term deterring activity [1],long-term deterrent activity [2],vermin-deterring activity in the arena test [3],long-term deterring activity [4],activity as a deterrent [5]
"CN1CCCCC1C(O)c1ccccc1 (stereo not drawn) [Compound 1.45, N-me-thyl-2-[(1-phenyl)(1-hydroxy)methyl]piperidine]",Particularly marked long-term activity,Particularly marked long-term activity,excellent activity,Particularly marked long-term activity,–
"OC(c1ccccc1)C1CCCCN1 (stereo not drawn) [Compound 1.44, 2-[(1-phenyl)(1-hydroxy)methyl]piperidine]",–,–,excellent activity,–,–
"CC1(C)CCCC(C(O)c2ccc(Cl)cc2)N1 (stereo not drawn) [Compound 1.101, 6,6-dimethyl-2-[(1-[4-chlorphenyl])(1-hydroxy)methyl]piperidine]",–,–,excellent activity,–,–
"CCCCCCCCCCC(O)C1CCCCN1C(C)=O (stereo not drawn) [Compound 1.140, N-acetyl-2-[(1-hydroxy)(1-undecyl)]piperidine]",–,–,–,Particularly marked long-term activity,–
"CC(C)c1ccc(C(O)C2CCCCN2)cc1 (stereo not drawn) [Compound 1.95, 2-[(1-[4-isopropyl-phenyl])(1-hydroxy)methyl]piperidine]",–,Particularly marked long-term activity,excellent activity,Particularly marked long-term activity,–
"CCCCCCCCCCCCC(O)C1CCCCN1 (stereo not drawn) [Compound 1.29, 2-[n-(1-hydroxytridecyl)]piperidine]",Particularly marked long-term activity,–,–,–,–
OC[C@H]1NC[C@H](O)[C@@H](O)[C@@H]1O [deoxynojirimicin],–,–,–,–,slight activity
"CCCCCCCCCCCCCCC(O)C1CCCCN1 (stereo not drawn) [Compound 1.32, 2-[n-(1-hydroxypentade-cyl)]piperidine]",Particularly marked long-term activity,–,–,–,–
"CC(C)c1ccc(C(O)C2CCCCN2C)cc1 (stereo not drawn) [Compound 1.96, N-methyl-2-[(1-[4-isopropylphenyl])(1-hydroxy)methyl]-piperidine]",Particularly marked long-term activity,Particularly marked long-term activity,excellent activity,Particularly marked long-term activity,–
"CCCCCCCCCCC(O)C1CCCCN1C(=O)OCC (stereo not drawn) [Compound 1.141, N -ethoxycarbonyl--2-[(1-hydroxy)(1-undecycl)]piperidine]",–,–,–,Particularly marked long-term activity,–
"OC(c1ccccc1)C1CCCCN1 (stereo not drawn) [Compound 1.40, 2-[(1-phenyl)(1-hydroxy)methyl]piperidine]",Particularly marked long-term activity,Particularly marked long-term activity,–,Particularly marked long-term activity,–
"Cc1ccc(C(O)C2CCCCN2C)cc1 (stereo not drawn) [Compound 1.87, N-methyl-2-[(1-[4-methylphenyl])-(1-hydroxy)methyl]piperidine]",–,–,excellent activity,–,–
"Cc1ccc(C(O)C2CCCCN2)cc1 (stereo not drawn) [Compound 1.89, 2-[(1-[4-methylphenyl])(1-hydroxy)methyl]piperidine]",–,–,excellent activity,–,–
"COc1ccc(C(O)C2CCCCN2)cc1 (stereo not drawn) [Compound 1.97, 2-[(1-[4-methoxyphenyl])(1-hydroxy)methyl]piperidine]",–,Particularly marked long-term activity,excellent activity,Particularly marked long-term activity,–
OC(COCc1ccccc1)C1CCCCN1 (stereo not drawn) [Compound 1.137],Particularly marked long-term activity,Particularly marked long-term activity,excellent activity,Particularly marked long-term activity,–
"CCCCCCCCCCC(O)C1CCCCN1 (stereo not drawn) [Compound 1.27, 2-[n-(1-hydroxyundecyl)]piperidine]",Particularly marked long-term activity,–,–,–,–
"CCCCCCCCCCCCCCCCC(O)C1CCCCN1 (stereo not drawn) [Compound 1.34, 2-[n-(1-hydroxyheptadecyl)]piperidine]",Particularly marked long-term activity,–,–,–,–
"CCCCCCCCCCCCCCCCCCC(O)C1CCCCN1 (stereo not drawn) [Compound 1.36, 2-[n-(1-hydroxynonadecyl)]piperidine]",Particularly marked long-term activity,–,–,–,–
OC(c1ccccc1)(c1ccc2c(c1)CCO2)C1CCCCN1 (stereo not drawn) [Compound 1.59],Particularly marked long-term activity,–,excellent activity,–,–
"CC1(C)CCCC(C(O)c2ccc(Cl)cc2)N1 (stereo not drawn) [Compound 1.139, 6,6-dimethyl-2-[(1-[4-chlorphenyl])(1-hydroxy)methyl]piperidine]",Particularly marked long-term activity,Particularly marked long-term activity,excellent activity,Particularly marked long-term activity,–
